This passage reports IC50 results from patent US8912216B2, “Hetaryl-[1,8]naphthyridine derivatives” (Merck Patent GmbH, priority 2010, dated 2014).

Structures can show the parent of a compound that is named as a salt. Where two headings read alike, the source gives them in different places.

For assay [1], the system named is TGF-beta-induced phosphorylation of Smad2 and Smad3 in Mv1-Lu cells. In words: Inhibition of Smad2/3 phosphorylation in Mv1Lu cells (Example 35A). The settings on record: Neogale vison, read-out: TβR activity (Example 35A). Format: cell-based, mink Mustela vison. On the procedure: Inhibition of Smad2/3 Phosphorylation in Mv1Lu Cells by TGF-bta Receptor I Kinase Inhibitors
This assay was used to determine the inhibitory potency of compounds on TGF-beta-induced phosphorylation of Smad2 (Ser465/467) and Smad3 (Ser423/425). Mv1-Lu cells (lung epithelial cell line from mink Mustela vison; ATCC number: CCL-64) were seeded in DMEM (Invitrogen) supplemented with 10% fetal bovine serum (Pan Biotech) at a defined cell density in 24-well or 96-well plates (24-well plate: 1.5×10^5 cells per well; 96-well plate: 4×10^4 cells per well). Cell cultures were incubated in DMEM at 37° C. and 10% CO2. On the next day, the medium was replaced and cells were serum-starved for 16-20 hours. The following day, serial dilutions of compounds were added to the wells, pre-incubated for 1.5 hrs before recombinant TGF-beta 1 ligand (final concentration 5 ng/ml; R&D systems) was added. After one hour of ligand stimulation, lysates were prepared and analyzed using an enzyme-linked immunosorbent assay kit (PathScan Phospho-Smad2 Kit, Cell Signaling Technologies). The ELISA detects phosphorylated Smad2 as well as phosphorylated Smad3 with the phospho-specific antibody. TGF-beta stimulated cells and unstimulated cells served as positive and negative controls (100% and background control). The concentration of the vehicle DMSO was kept constant at 0.2% (v/v) in all wells. Dose-response relationships were fitted using curve fitting algorithms of the RS1 statistics software package (Brooks Automation Inc. RS/1—Statistical Tools Handbook. Release 6.2) to determine the concentration at which half-maximal inhibition (IC50) of Smad2/3 phosphorylation was achieved.

In assay [2] the target is T1, GST-ALK5 (Homo sapiens, UniProt P36897).
T1 sequence (P36897 34-503): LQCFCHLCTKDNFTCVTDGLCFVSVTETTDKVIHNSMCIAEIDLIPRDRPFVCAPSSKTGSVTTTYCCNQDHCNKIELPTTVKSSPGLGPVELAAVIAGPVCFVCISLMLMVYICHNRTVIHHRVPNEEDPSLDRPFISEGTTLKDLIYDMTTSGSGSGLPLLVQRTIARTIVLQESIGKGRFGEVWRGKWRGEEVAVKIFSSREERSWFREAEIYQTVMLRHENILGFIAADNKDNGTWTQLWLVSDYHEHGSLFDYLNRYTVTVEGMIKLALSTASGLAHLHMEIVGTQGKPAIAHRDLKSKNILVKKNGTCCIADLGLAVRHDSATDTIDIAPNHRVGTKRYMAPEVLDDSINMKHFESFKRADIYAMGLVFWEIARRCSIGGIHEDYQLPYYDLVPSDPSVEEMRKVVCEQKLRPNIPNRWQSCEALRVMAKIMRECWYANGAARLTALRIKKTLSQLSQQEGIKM
Briefly: In-vitro (enzyme) kinase assay, 384-well flashplate (Example 36). The class given is biochemical. The settings on record: GST-ALK5, GST-SMAD2 substrate, 3 mM ATP, 30° C., 45 min; read-out: TβR activity (Example 36). The procedure:
In-vitro (Enzyme) Assay for Determination of the Efficacy of Inhibitors of the Inhibition of TGF-beta-Mediated Effects
The kinase assay was carried out as 384-well flashplate assay. 31.2 nM of GST-ALK5, 439 nM of GST-SMAD2 and 3 mM of ATP (with 0.3 μCi of ^33P-ATP/well) were incubated in a total volume of 35 μl (20 mM of HEPES, 10 mM of MgCl2, 5 mM of MnCl2, 1 mM of DTT, 0.1 of BSA, pH 7.4) without or with test substance (5-10 concentrations) at 30° C. for 45 min. The reaction was stopped using 25 μl of 200 mM EDTA solution, filtered with suction at room temperature after 30 min, and the wells were washed with 3 times 100 μl of 0.9% NaCl solution. Radioactivity was measured in the TopCount. The IC50 values were calculated using RS1.

Setting [3] is: Mv1-Lu cells, TGF-beta 1 5 ng/ml, phospho-Smad2/3 ELISA.

In the case of `Fc1ccc(F)c(-c2cc(-c3cncc(-c4cccc(OC5CCNCC5)c4)c3)c3cccnc3n2)c1` [compound 144, 2-(2,5-Difluoro-phenyl)-4-{5-[3-(piperidin-4-yloxy)-phenyl]-pyridin-3-yl}-[1,8]naphthyridine], the IC50 in assay [1] (setting [3]) is 100 to 1000 nM; in assay [2] it was below 100 nM.

Regarding `CN1CCN(c2cncc(-c3cncc(-c4cc(-c5cc(Cl)ccc5F)nc5ncccc45)c3)c2)CC1` [compound 171, 2-(5-Chloro-2-fluoro-phenyl)-4-[5′-(4-methyl-piperazin-1-yl)-[3,3′]bipyridinyl-5 yl]-[1,8]naphthyridine], the IC50 in assay [1] (setting [3]) and in assay [2] was below 100 nM in each case.

For the compound `CC(=O)N1CCc2cc(-c3cncc(-c4cc(-c5cc(Cl)ccc5F)nc5ncccc45)c3)ccc21` [compound 164, 1-(5-{5-[2-(5-Chloro-2-fluoro-phenyl)-[1,8]naphthyridin-4-yl]-pyridin-3-yl}-2,3-dihydro-indol-1-yl)-ethanone], the IC50 in assay [1] (setting [3]) and in assay [2] was below 100 nM each time.

For `Fc1ccc(C(F)(F)F)cc1-c1cc(-c2cncc(-c3cnn(C4CCNCC4)c3)c2)c2cccnc2n1` [compound 18, 2-(2-Fluoro-5-trifluoromethyl-phenyl)-4-[5-(1-piperidin-4-yl-1H-pyrazol-4-yl)-pyridin-3-yl]-[1,8]naphthyridine dihydrochloride], the IC50 in assay [1] and in assay [2] was below 100 nM each time.

In the case of `Fc1ccc(F)c(-c2cc(-c3cncc(-c4cccc(OCCN5CCNCC5)c4)c3)c3cccnc3n2)c1` [compound 148, 2-(2,5-Difluoro-phenyl)-4-{5-[3-(2-piperazin-1-yl-ethoxy)-phenyl]-pyridin-3-yl}-[1,8]naphthyridine], the IC50 in assay [1] (setting [3]) and in assay [2] was below 100 nM throughout.

As for `Fc1ccccc1-c1cc(-c2cncc(-c3cnn(CCn4cccn4)c3)c2)c2cccnc2n1` [compound 77, 2-(2-Fluoro-phenyl)-4-{5-[1-(2-pyrazol-1-yl-ethyl)-1H-pyrazol-4-yl]-pyridin-3-yl}-[1,8]naphthyridine], the IC50 in assay [1] (setting [3]) lay in the range of 1000 to 10000 nM; in assay [2], 100 to 1000 nM.

Turning to `COCCN1CCC(n2cc(-c3cncc(-c4cc(-c5ccccc5F)nc5ncccc45)c3)cn2)CC1` [compound 52, 2-(2-Fluoro-phenyl)-4-(5-{1-[1-(2-methoxy-ethyl)-piperidin-4-yl]-1H-pyrazol-4-yl}-pyridin-3-yl)-[1,8]naphthyridine], the IC50 in assay [1] (setting [3]) and in assay [2] was below 100 nM each time.

Consider `CN1CCN(c2nc(-c3cncc(-c4cc(-c5ccccc5F)nc5ncccc45)c3)no2)CC1` [compound 54, 2-(2-Fluoro-phenyl)-4-{5-[5-(4-methyl-piperazin-1-yl)-[1,2,4]oxadiazol-3-yl]-pyridin-3-yl}-[1,8]naphthyridine], for which the results for the IC50 in assay [1] (setting [3]) and in assay [2] were 1000 to 10000 nM and below 100 nM, respectively.

On to `CC(=O)Nc1ccc(-c2cncc(-c3cc(-c4cc(Cl)ccc4F)nc4ncccc34)c2)nn1` [compound 122, N-(6-{5-[2-(5-Chloro-2-fluoro-phenyl)-[1,8]naphthyridin-4-yl]-pyridin-3-yl}-pyridazin-3-yl)-acetamide], for which the IC50 in assay [1] (setting [3]) and in assay [2] was 100 to 1000 nM in each case.

For `Cn1cc(-c2cncc(-c3cc(-c4cccc(C(F)(F)F)c4)nc4ncccc34)c2)cn1` [compound 14, 4-[5-(1-Methyl-1H-pyrazol-4-yl)-pyridin-3-yl]-2-(3-trifluoromethyl-phenyl)-[1,8]naphthyridine], the IC50 in assay [1] (setting [3]) lay within 1000 to 10000 nM; in assay [2] it was 100 to 1000 nM.

As for `Fc1ccc(Cl)cc1-c1cc(-c2cncc(-c3ccc4c(c3)OCCO4)c2)c2cccnc2n1` [compound 134, 2-(5-Chloro-2-fluoro-phenyl)-4-[5-(2,3-dihydro-benzo[1,4]dioxin-6-yl)-pyridin-3-yl]-[1,8]naphthyridine], the IC50 in assay [1] (setting [3]) is below 100 nM; in assay [2], 100 to 1000 nM.

Consider `N#Cc1ccnc(-c2cncc(-c3cc(-c4cc(Cl)ccc4F)nc4ncccc34)c2)c1` [compound 133, 5′-[2-(5-Chloro-2-fluoro-phenyl)-[1,8]naphthyridin-4-yl]-[2,3′]bipyridinyl-4-carbonitrile], for which the IC50 in assay [1] (setting [3]) and in assay [2] was above 10000 nM each time.

In the case of `CN1CCC(n2cc(-c3cncc(-c4cc(-c5ccccc5F)nc5ncccc45)c3)cn2)C1` (centres unmarked) [compound 59, 2-(2-Fluoro-phenyl)-4-{5-[1-(1-methyl-pyrrolidin-3-yl)-1H-pyrazol-4-yl]-pyridin-3-yl}-[1,8]naphthyridine], the IC50 in assay [1] (setting [3]) and in assay [2] was below 100 nM each time.

Turning to `Fc1ccccc1-c1cc(-c2cncc(-n3cccn3)c2)c2cccnc2n1` [compound 79, 2-(2-Fluoro-phenyl)-4-(5-pyrazol-1-yl-pyridin-3-yl)-[1,8]naphthyridine], the IC50 in assay [1] (setting [3]) lay within 1000 to 10000 nM; in assay [2], 100 to 1000 nM.

In the case of `CNC(=O)c1cccc(-c2cncc(-c3cc(-c4cc(Cl)ccc4F)nc4ncccc34)c2)n1` [compound 127, 5′-[2-(5-Chloro-2-fluoro-phenyl)-[1,8]naphthyridin-4-yl]-[2,3′]bipyridinyl-6-carboxylic acid methylamide], the values for the IC50 in assay [1] (setting [3]) and in assay [2] were above 10000 nM and 1000 to 10000 nM, respectively.

Take `NS(=O)(=O)c1ccc(-c2cncc(-c3cc(-c4ccccc4F)nc4ncccc34)c2)cc1` [compound 78, 4-{5-[2-(2-Fluoro-phenyl)-[1,8]naphthyridin-4-yl]-pyridin-3-yl}-benzenesulfonamide]: the values for the IC50 in assay [1] (setting [3]) and in assay [2] were 100 to 1000 nM and below 100 nM, respectively.

As to `Fc1ccccc1-c1cc(-c2cncc(-c3nccc(N4CCNCC4)n3)c2)c2cccnc2n1` [compound 71, 2-(2-fluoro-phenyl)-4-[5-(4-piperazin-1-yl-pyrimidin-2-yl)-pyridin-3-yl]-[1,8]naphthyridine], the values for the IC50 in assay [1] (setting [3]) and in assay [2] were 1000 to 10000 nM and below 100 nM, respectively.

Consider `COc1cccc(-c2cncc(-c3cc(-c4cc(Cl)ccc4F)nc4ncccc34)c2)n1` [compound 111, 2-(5-Chloro-2-fluoro-phenyl)-4-(6-methoxy-[2,3′]bipyridinyl-5′-yl)-[1,8]naphthyridine], for which the IC50 in assay [1] (setting [3]) and in assay [2] was 100 to 1000 nM each time.

As for `Nc1ncc(-c2cc(-c3cc(Cl)ccc3F)nc3ncccc23)c2ccncc12` [compound 167, 4-[2-(5-Chloro-2-fluoro-phenyl)-[1,8]naphthyridin-4-yl]-[2,7]naphthyridin-1-ylamine], the IC50 in assay [1] (setting [3]) and in assay [2] was below 100 nM throughout.

As for `Cn1cc(-c2cncc(-c3cc(-c4cccc(Cl)c4)nc4ncccc34)c2)cn1` [compound 9, 2-(3-Chloro-phenyl)-4-[5-(1-methyl-1H-pyrazol-4-yl)-pyridin-3-yl]-[1,8]naphthyridine], the IC50 in assay [1] (setting [3]) lay within 1000 to 10000 nM; in assay [2] it was 100 to 1000 nM.

Take `CN(C)CCCn1cc(-c2cncc(-c3cc(-c4cc(Cl)ccc4F)nc4ncccc34)c2)cn1` [compound 97, [3-(4-{5-[2-(5-Chloro-2-fluoro-phenyl)-[1,8]naphthyridin-4-yl]-pyridin-3-yl}-pyrazol-1-yl)-propyl]-dimethyl-amine]: the IC50 in assay [1] (setting [3]) and in assay [2] was below 100 nM each time.

With `CN(C)CCNC(=O)c1cccc(-c2cncc(-c3cc(-c4cc(Cl)ccc4F)nc4ncccc34)c2)c1` [compound 118, 3-{5-[2-(5-Chloro-2-fluoro-phenyl)-[1,8]naphthyridin-4-yl]-pyridin-3-yl}-N-(2-dimethylamino-ethyl)-benzamide], the IC50 in assay [1] (setting [3]) was 100 to 1000 nM; in assay [2], below 100 nM.
